These are literature values, as cited in patent US20100055040A1, “Optical Imaging Contrast Agents” (priority 2005, published 2010).

For one data set, the system named is ulcerated gastric mucosa. Conditions: humans; ulcerated vs unulcerated gastric mucosa.
The conditions of data set [1]: gastrointestinal tract.

For the substance “α-D-glucopyranoside, β-D-fructofuranosyl-, octakis-(hydrogen sulfate), aluminum complex [Sucralfate]”, the “times more sucralfate binds to ulcerated gastric mucosa than to unulcerated mucosa” value with ulcerated gastric mucosa was “six to seven”. Further, the “absorption by the body” value in data set [1] is “only minimally absorbed”.
